Test results published in patent US8211937B2, “7-pyrollyl 9-aminoacyl tetracycline compounds and methods of use thereof” (Paratek Pharmaceuticals, Inc., priority 2001, dated 2012).
In brackets after ≈: the same amount, converted by molar mass.

Columns and labels:
Test in all cases: MIC, broth microdilution growth inhibition
Assay type in all cases: cell-based
Conditions in all cases: Mueller-Hinton broth, 37° C., 18 h, unit assumed
S. aureus ATCC 29213 = tested on: S. aureus ATCC 29213
Experimental: (§1) Growth inhibitory activity was determined on liquid medium by the antibiotic dilution technique using 96-well microtiter system plates containing two-fold dilutions of antibiotic-agent in 0.2 ml. of Mueller-Hinton broth. Plates were inoculated with each test organism to yield a final inoculum of 5×10^5 CFU/ml and were incubated aerobically at 37° C. for 18 h. The MIC was defined as the lowest concentration of antibacterial agent that inhibited development of visible growth in the microdilution wells. GAR936 can be prepared e.g. as in J. Med Chem 1994, 37 184-188. Minocyline is available from e.g. Aldrich.

E. faecalis 73 Tet R = tested on: E. faecalis 73 Tet R
Experimental: as §1

E. faecium 97 Tet R = tested on: E. faecium 97 Tet R
Experimental: as §1

H. influenzae ATCC 4927 = tested on: H. influenzae ATCC 4927
Experimental: as §1

K. Pneumoniae 3226 = tested on: K. Pneumoniae 3226
Experimental: as §1

E. coli D1-209 Tet R = tested on: E. coli D1-209 Tet R
Experimental: as §1

E. faecalis ATCC 29212 = tested on: E. faecalis ATCC 29212
Experimental: as §1

E. coli 851ML308-225 = tested on: E. coli 851ML308-225
Experimental: as §1

S. pneumoniae 157 = tested on: S. pneumoniae 157
Experimental: as §1

A. calcoaceticus 1726 = tested on: A. calcoaceticus 1726
Experimental: as §1

P. aeruginosa 3808 = tested on: P. aeruginosa 3808
Experimental: as §1

S. aureus GFX01596 Tet R = tested on: S. aureus GFX01596 Tet R
Experimental: as §1

E. coli D1-299 Tet R = tested on: E. coli D1-299 Tet R
Experimental: as §1

E. faecium 494 = tested on: E. faecium 494
Experimental: as §1

E. coli 851E = tested on: E. coli 851E
Experimental: as §1

[1] = tested on: S. pneumoniae GFX01778 Tet R
Experimental: as §1

[2] = tested on: M. catarrhalis ATCC 23246
Experimental: as §1

| Structure (SMILES) | MIC (S. aureus ATCC 29213) [µg/mL] | MIC (E. faecalis 73 Tet R) [µg/mL] | MIC (E. faecium 97 Tet R) [µg/mL] | MIC (H. influenzae ATCC 4927) [µg/mL] | MIC (K. Pneumoniae 3226) [µg/mL] | MIC (E. coli D1-209 Tet R) [µg/mL] | MIC (E. faecalis ATCC 29212) [µg/mL] | MIC (E. coli 851ML308-225) [µg/mL] | MIC (S. pneumoniae 157) [µg/mL] | MIC (A. calcoaceticus 1726) [µg/mL] | MIC (P. aeruginosa 3808) [µg/mL] | MIC (S. aureus GFX01596 Tet R) [µg/mL] | MIC (E. coli D1-299 Tet R) [µg/mL] | MIC (E. faecium 494) [µg/mL] | MIC (E. coli 851E) [µg/mL] | MIC [1] [µg/mL] | MIC [2] [µg/mL] |
| --- | --- | --- | --- | --- | --- | --- | --- | --- | --- | --- | --- | --- | --- | --- | --- | --- | --- |
| CN(C)[C@@H]1C(O)=C(C(N)=O)C(=O)[C@@]2(O)C(O)=C3C(=O)c4c(O)ccc(-n5ccc(C#N)c5)c4C[C@H]3C[C@@H]12 [Compound A, [4S-(4aα,5aα,12aα)]-7-(3-Cyanopyrrol-1-yl)-4-(Dimethylamino)-1,4,4a,5,5a,6,11,12a-octahydro-3,10,12,12a-tetrahydroxy-1,11-dioxo-2-naphthacenecarboxamide] | 0.015 (≈ 0.0297 µM) | 4 (≈ 7.93 µM) | 8 (≈ 15.9 µM) | 0.5 (≈ 0.991 µM) | > 128 | 16 (≈ 31.7 µM) | 2 (≈ 3.96 µM) | 0.5 (≈ 0.991 µM) | 0.015 (≈ 0.0297 µM) | 8 (≈ 15.9 µM) | > 128 | 0.5 (≈ 0.991 µM) | 4 (≈ 7.93 µM) | 8 (≈ 15.9 µM) | 1 (≈ 1.98 µM) | 2 (≈ 3.96 µM) | 0.001 (≈ 0.00198 µM) |
| CN(C)[C@@H]1C(O)=C(C(N)=O)C(=O)[C@@]2(O)C(O)=C3C(=O)c4c(O)ccc(-n5ccc(C=O)c5)c4C[C@H]3C[C@@H]12 [Compound B, [4S-(4aα,5aα,12aα)]-4-(Dimethylamino)-7-(1H-pyrrol-1-yl-3-carboxaldehyde)-1,4,4a,5,5a,6,11,12a-octahydro-3,10,12,12a-tetrahydroxy-1,11-dioxo-2-naphthacenecarboxamide] | 0.015 (≈ 0.0296 µM) | 8 (≈ 15.8 µM) | > 128 | 1 (≈ 1.97 µM) | > 128 | > 128 | 2 (≈ 3.94 µM) | 0.5 (≈ 0.985 µM) | 0.015 (≈ 0.0296 µM) | > 128 | > 128 | 0.25 (≈ 0.493 µM) | 32 (≈ 63.1 µM) | 32 (≈ 63.1 µM) | 1 (≈ 1.97 µM) | 2 (≈ 3.94 µM) | 0.008 (≈ 0.0158 µM) |
| CN(C)CC(=O)Nc1cc(-n2ccc(C=O)c2)c2c(c1O)C(=O)C1=C(O)[C@]3(O)C(=O)C(C(N)=O)=C(O)[C@@H](N(C)C)[C@@H]3C[C@@H]1C2 [Compound C] | 0.125 (≈ 0.206 µM) | 0.004 (≈ 0.00658 µM) | 0.06 (≈ 0.0987 µM) | 1 (≈ 1.65 µM) | 125 (≈ 206 µM) | 1 (≈ 1.65 µM) | 0.125 (≈ 0.206 µM) | 0.03 (≈ 0.0494 µM) | 0.015 (≈ 0.0247 µM) | 16 (≈ 26.3 µM) | 32 (≈ 52.7 µM) | 4 (≈ 6.58 µM) | 16 (≈ 26.3 µM) | 0.25 (≈ 0.411 µM) | 1 (≈ 1.65 µM) | 0.03 (≈ 0.0494 µM) | 0.002 (≈ 0.00329 µM) |
| CN(C)c1cc(NC(=O)CNC(C)(C)C)c(O)c2c1C[C@H]1C[C@H]3[C@H](N(C)C)C(O)=C(C(N)=O)C(=O)[C@@]3(O)C(O)=C1C2=O [GAR-936] | 0.5 (≈ 0.854 µM) | 0.5 (≈ 0.854 µM) | 0.5 (≈ 0.854 µM) | 1 (≈ 1.71 µM) | 2 (≈ 3.41 µM) | 0.5 (≈ 0.854 µM) | 0.5 (≈ 0.854 µM) | – | 0.25 (≈ 0.427 µM) | 32 (≈ 54.6 µM) | 32 (≈ 54.6 µM) | 1 (≈ 1.71 µM) | 0.5 (≈ 0.854 µM) | 0.5 (≈ 0.854 µM) | 1 (≈ 1.71 µM) | 0.06 (≈ 0.102 µM) | 0.12 (≈ 0.205 µM) |
| CN(C)c1ccc(O)c2c1C[C@H]1C[C@H]3[C@H](N(C)C)C(=O)C(C(N)=O)=C(O)[C@@]3(O)C(=O)C1=C2O [MINO, Minocyline] | 0.03 (≈ 0.0656 µM) | 32 (≈ 69.9 µM) | 32 (≈ 69.9 µM) | 0.5 (≈ 1.09 µM) | 32 (≈ 69.9 µM) | 16 (≈ 35 µM) | 2 (≈ 4.37 µM) | 0.25 (≈ 0.546 µM) | 0.5 (≈ 1.09 µM) | 1 (≈ 2.19 µM) | 16 (≈ 35 µM) | 0.12 (≈ 0.262 µM) | 1 (≈ 2.19 µM) | 32 (≈ 69.9 µM) | 0.5 (≈ 1.09 µM) | 16 (≈ 35 µM) | 0.001 (≈ 0.00219 µM) |
